The results in this text go back to ChEMBL document CHEMBL1201862, “PubChem BioAssay data set” (2004).

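Results reflect a 48-hour exposure of cells in 96-well plates to compound at five concentrations. GI50 is the concentration that inhibits growth by half.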 Activity calls are given as the source filed them. No stated cut-off is given here; in the data, active = GI50 up to about 1.1 µM and inactive = higher.

What all share (assay): NCI tumour cell line growth inhibition, 48 h
In assay [1] the test system is M19-MEL.
Assay [2] has as its system DMS-114.
In assay [3] the test system is SNB-78.
The subject of assay [4] is HOP-18.
The subject of assay [5] is DLD-1.
Assay [6] has as its system XF498.
The test system of assay [7] is DMS-273.
Assay [8] has as its system RXF 631.
Assay [9] relates to KM-20L2.

Take `O=C1C=CC(=O)c2c1ccc1c3ccccc3n(-c3ccccn3)c21`: the GI50 in assay [1] is 21 µM (inactive); in [2], 20.6 µM (inactive); in assay [3], > 100 µM (inactive); in [4], 14.8 µM (inactive); in [5], 16.5 µM (inactive); in [6] it was 15.6 µM (inactive). In addition, the GI50 in assay [7] was 39.4 µM (inactive).

In the case of `O=C(N/C(=C/c1cccc([N+](=O)[O-])c1)c1nc2cc(Cl)ccc2[nH]1)c1ccccc1`, the GI50 in assay [1] was 24 µM (inactive); in [8], 10.5 µM (inactive); in assay [2], 8.51 µM (inactive); in assay [3], 39.9 µM (inactive); in assay [4], 30.9 µM (inactive); in assay [9], 10.5 µM (inactive).

For `COc1ccc2c(CCNC(=O)/C=C/c3ccccc3)c(C(C)=O)[nH]c2c1[N+](=O)[O-]`, the GI50 in assay [8] is 13.2 µM (inactive); in assay [2], 13.6 µM (inactive); in [3], 40.2 µM (inactive); in assay [9], 19.1 µM (inactive); in assay [7] it was 5.64 µM (inactive).

`C=CC1=CSNN1`: the GI50 in assay [1], in assay [2], in assay [4], in assay [5], in [9] and in assay [7] was > 100 µM (inactive) each time.

As to `COC(=O)CCC(=O)CC(=O)C(=O)Nc1ccc(F)cc1`, the GI50 in assay [1], in assay [2], in assay [3], in [4], in assay [5] and in assay [9] was > 100 µM (inactive) each time. The GI50 in [7] is > 100 µM (inactive).

Take `O=S1(=O)NN=C(NCc2ccc(Cl)cc2)c2ccccc21`: the GI50 was > 100 µM (inactive) in [1]; > 100 µM (inactive) in assay [8]; > 100 µM (inactive) in assay [2]; > 100 µM (inactive) in [3]; 95.1 µM (inactive) in assay [5]; 90.6 µM (inactive) in assay [6]. Besides, the GI50 in assay [9] and in assay [7] was > 100 µM (inactive) in each case.

As to `CN(C)c1cccc(-c2cc(O)c3cc4c(cc3n2)OCO4)c1`, the GI50 was 0.401 µM (active) in [1]; 0.815 µM (active) in [8]; 0.236 µM (active) in assay [2]; 62.8 µM (inactive) in assay [3]; 0.206 µM (active) in assay [5]; 0.144 µM (active) in [6]. Besides, the GI50 was 0.216 µM (active) in assay [9] and 0.203 µM (active) in assay [7].

As to `C[C@]12Cc3conc3C(O)=C1CC[C@@H]1C2CC[C@@]2(C)C1CC[C@]2(C)O` (some centres not stated), the GI50 was 15.1 µM (inactive) in assay [1]; 21.6 µM (inactive) in assay [8]; 16.4 µM (inactive) in assay [2]; 22.4 µM (inactive) in assay [3]; 16.5 µM (inactive) in assay [5]; 18.2 µM (inactive) in assay [6]. Also, the values for the GI50 in [9] and in [7] were 13.5 µM (inactive) and 9.04 µM (inactive), respectively.

With `CC1=C(c2ccccc2)C(c2ccccc2)=C(c2ccccc2)C2(c3ccccc3)C(=O)C(C)CN12` (configuration not stated), the GI50 in assay [1] is 58.5 µM (inactive); in [5], 61.8 µM (inactive); in [6], 16.9 µM (inactive); in assay [9], 45.5 µM (inactive); in assay [7] it was 46.1 µM (inactive).

As to `Cc1c(C)n(COCCO)c2ncnc(N)c12`, the GI50 in assay [1], in [4], in [5], in assay [6], in assay [9] and in [7] was > 100 µM (inactive) each time.

As for `COc1ccc(/C=C2\CCC(CN(C)C)C2=O)cc1` (configuration not stated), the GI50 in [1] was 8.71 µM (inactive); in assay [2], 5.98 µM (inactive); in [3], 13.6 µM (inactive); in assay [4], 6.85 µM (inactive); in [5] it was 3.62 µM (inactive); in assay [6], 4.21 µM (inactive). Moreover, the GI50 in [9] is 17.1 µM (inactive).

Turning to `N#Cc1c(-c2ccc(Cl)cc2)c(-c2ccc(Cl)cc2)nn(CCOC(=O)CCC(=O)O)c1=O`, the GI50 in assay [1] is 1.8 µM (inactive); in assay [2] it was 0.931 µM (active); in [4] it was 29.2 µM (inactive); in assay [5], 4.13 µM (inactive); in [9], 2.28 µM (inactive); in assay [7], 2.08 µM (inactive).

As to `O=C1C[C@@H]2[C@@H](CCC23CCCC3)N1`, the GI50 in assay [1], in assay [3], in assay [4], in assay [5], in assay [9] and in assay [7] was > 100 µM (inactive) in each case.

For `C=C1CC2CC[C@@]34C[C@@H]5O[C@@H]6C(O[C@H]7CC[C@H](CC(=O)OC8[C@@H](C)C9OC%10C[C@]%11(C[C@@H]%12O[C@@]%13(C[C@@H](C)[C@@H]%12O%11)C[C@H](C)[C@@H]%11OC%12CC(C(O)CO)OC%12C[C@@H]%11O%13)OC%10CC9O[C@H]8C[C@H]8O[C@@H](CC[C@@H]1O2)C[C@@H](C)C8=C)O[C@@H]7[C@@H]6O3)C5O4` (some centres not stated), the GI50 is 0.000603 µM (active) in assay [8]; 0.00178 µM (active) in assay [3]; 0.00267 µM (active) in [5]; 0.000267 µM (active) in assay [6]; 0.000428 µM (active) in [9]; 0.000499 µM (active) in assay [7].

With `O=C1OC(=O)C2C1C1C(c3ccccc3)=C(c3ccccc3)C2(O)C2C(=O)OC(=O)C12` (configuration not stated), the GI50 is > 100 µM (inactive) in assay [1]; 28.6 µM (inactive) in assay [2]; 97.7 µM (inactive) in assay [3]; 91 µM (inactive) in assay [5]; 91 µM (inactive) in assay [9].

Regarding `CC1OC(=O)C(C(C)C)NC(=O)C(C(C)C)OC(=O)C(C(C)C)NC(=O)C(C)OC(=O)C(C(C)C)NC(=O)C(C(C)C)OC(=O)C(C(C)C)NC(=O)C(C)OC(=O)C(C(C)C)NC(=O)C(C(C)C)OC(=O)C(C(C)C)NC1=O` (configuration not stated), the GI50 in assay [1] was 0.00367 µM (active); in assay [2], 0.0025 µM (active); in assay [3], 0.00391 µM (active); in assay [4], 0.0337 µM (active); in [5], 0.00326 µM (active); in [9] it was 0.0034 µM (active). Also, the GI50 in [7] was 0.0025 µM (active).

In the case of `O=C1c2ccccc2C(=O)c2c(O)c(O)cc(O)c21` [PURPURIN], the GI50 in assay [1] was 36.7 µM (inactive); in assay [8] it was 39.4 µM (inactive); in assay [3], 38.2 µM (inactive); in assay [5] it was 31.5 µM (inactive); in [6], 22.9 µM (inactive); in assay [7], 38.1 µM (inactive).

As to `CC(C)(C)OC(=O)NCCc1cccc2c1oc1c(CCC(=O)O)cccc12`, the GI50 in [1], in [2], in assay [3], in assay [4], in assay [5] and in assay [6] was > 100 µM (inactive) each time. The GI50 in assay [9] and in assay [7] was > 100 µM (inactive) each time.

As to `C[C@]12CCC3[C@@H](CC[C@@H]4c5nonc5CC[C@]34C)C1CCC2=O` (some centres not stated), the GI50 in assay [1] was 21.6 µM (inactive); in assay [8] it was 38.2 µM (inactive); in assay [2], 20.6 µM (inactive); in [3] it was 23.2 µM (inactive); in assay [4] it was 43.9 µM (inactive); in assay [6] it was 19.1 µM (inactive). Moreover, the figures for the GI50 in [9] and in [7] were 25.7 µM (inactive) and 19.5 µM (inactive), respectively.

With `N#C/C(=C/c1ccsc1)C(=O)c1ccccc1`, the GI50 in [1], in [2], in assay [3], in [4], in assay [5] and in [6] was > 100 µM (inactive) throughout. For the same compound, the GI50 in assay [9] and in assay [7] was > 100 µM (inactive) in each case.

Turning to `Nc1ccn(CCCC(c2ccccc2)P(=O)(O)O)c(=O)n1` (configuration not stated), the GI50 in [1], in assay [2], in assay [3], in assay [4], in [5] and in [9] was > 100 µM (inactive) in each case. In addition, the GI50 in [7] is > 100 µM (inactive).

As to `COC(=O)C1=Cc2cn(S(=O)(=O)c3ccc(C)cc3)c3cccc(c23)C(C=C(C)C)N1C(C)=O` (configuration not stated), the GI50 was 21.4 µM (inactive) in assay [1]; 11.5 µM (inactive) in assay [2]; 24.5 µM (inactive) in assay [3]; 38.5 µM (inactive) in assay [4]; 14.7 µM (inactive) in assay [5]; 9.55 µM (inactive) in assay [6]. In addition, the GI50 in assay [9] is 69.3 µM (inactive); in assay [7], 6.01 µM (inactive).

Regarding `C[C@]12CCC3[C@@H](CC[C@@H]4c5nonc5CC[C@]34C)C1C/C(=N/O)C2=O` (some centres not stated), the GI50 in [1] is > 100 µM (inactive); in assay [8], > 100 µM (inactive); in [2] it was > 100 µM (inactive); in assay [3] it was > 100 µM (inactive); in assay [4], > 100 µM (inactive); in assay [6], 11.5 µM (inactive). The GI50 in assay [9] and in assay [7] was > 100 µM (inactive) in each case.

`Cc1cc2c(cc1C)[n+]([O-])c(C(=O)CC(=O)C(=O)Nc1ccccc1C)c(C)[n+]2[O-]`: the GI50 in [1] was > 100 µM (inactive); in assay [8] it was 32 µM (inactive); in assay [3] it was > 100 µM (inactive); in [4], 30.5 µM (inactive); in assay [9] it was > 100 µM (inactive); in [7] it was > 100 µM (inactive).

For the compound `O=C(O)c1cc2c3ccccc3nc-2c[nH]1`, the GI50 in assay [1], in [2], in assay [3], in assay [4], in assay [5] and in [9] was > 100 µM (inactive) each time. In addition, the GI50 in assay [7] is > 100 µM (inactive).

For the compound `COC1=C(OC)C(=O)c2cc(C)c(=O)c(C)cc2C1=O`, the GI50 in assay [1] was 3.37 µM (inactive); in assay [8] it was 50.6 µM (inactive); in assay [2], 3.27 µM (inactive); in assay [3], 18.5 µM (inactive); in [4], 16.3 µM (inactive); in assay [5] it was 22.3 µM (inactive). The GI50 in [9] was 21.1 µM (inactive); in assay [7], 25.4 µM (inactive).
